Read-outs that look alike come from different tables or passages of the source.
Experiments:
[1] = molecular target: T1, full length recombinant Pim-1 protein (Homo sapiens, UniProt P11309); assay: Pim-1 enzyme assay (HTRF, phosphorylation of biotinylated-BAD (S112) peptide); format: biochemical; settings: enzyme assay, Pim-1; read-out: Pim_1_IC50
T1 construct: by full length recombinant Pim-1, Pim-2, or Pim-3 protein; hexahistidine tag followed by a thrombin cleavage site (N); made in house; host or cells: Sf9 (baculovirus) or E. coli (pET28)
T1 sequence (P11309 whole entry): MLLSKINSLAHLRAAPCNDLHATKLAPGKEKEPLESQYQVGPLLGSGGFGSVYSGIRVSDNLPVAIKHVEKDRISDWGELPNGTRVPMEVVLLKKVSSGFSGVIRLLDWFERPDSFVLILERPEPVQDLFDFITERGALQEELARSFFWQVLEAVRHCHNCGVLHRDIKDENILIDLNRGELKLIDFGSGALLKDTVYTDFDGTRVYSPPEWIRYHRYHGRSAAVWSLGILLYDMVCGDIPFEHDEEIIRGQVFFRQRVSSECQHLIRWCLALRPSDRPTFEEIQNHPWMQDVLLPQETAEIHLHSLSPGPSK
Procedure, shortened: (§1)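 Full-length His-tagged Pim-1 or Pim-2 (Sf9 or E. coli expressed, purified) phosphorylated biotinylated BAD (S112) peptide in 60 mM Hepes pH 7.0, 0.05% BSA, 2 mM DTT. Reaction stopped with 3 mM EDTA; phospho-BAD read by HTRF with Eu anti-phospho-BAD antibody and streptavidin-APC. IC50 from percent of control by 4-parameter logistic fit.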

[2] = molecular target: T2, full length recombinant Pim-2 protein (Homo sapiens, UniProt Q9P1W9); assay: Pim-2 enzyme assay (HTRF, phosphorylation of biotinylated-BAD (S112) peptide); format: biochemical; settings: enzyme assay, Pim-2; read-out: Pim2_IC50
T2 construct: by full length recombinant Pim-1, Pim-2, or Pim-3 protein; hexahistidine tag followed by a thrombin cleavage site (N); made in house; host or cells: Sf9 (baculovirus) or E. coli (pET28)
T2 sequence (Q9P1W9 whole entry): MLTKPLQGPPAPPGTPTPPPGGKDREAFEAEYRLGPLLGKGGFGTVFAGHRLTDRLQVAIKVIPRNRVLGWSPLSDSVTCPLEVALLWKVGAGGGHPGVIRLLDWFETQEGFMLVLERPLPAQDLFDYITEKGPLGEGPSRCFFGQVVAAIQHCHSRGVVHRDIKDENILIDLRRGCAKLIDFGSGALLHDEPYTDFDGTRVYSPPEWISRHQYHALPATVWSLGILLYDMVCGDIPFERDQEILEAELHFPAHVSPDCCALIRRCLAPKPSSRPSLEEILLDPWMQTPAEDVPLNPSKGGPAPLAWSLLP
Procedure, shortened: as §1

[3] = molecular target: T3, Pim-2 stably transfected into the U2OS human osteogenic sarcoma line (Homo sapiens, UniProt Q9P1W9); assay: Pim cell assay, phospho-BAD normalized against total BAD, U2OS stably transfected with Pim-2; format: cell-based; settings: read-out: Pim2_Cell_IC50; note: high dose 31.6 µM
T3 construct: expressed in transfected cells; host or cells: U2OS human osteogenic sarcoma line
T3 sequence (Q9P1W9 whole entry): as above
Procedure, shortened: (§2)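 U2OS cells stably expressing Pim-1 or Pim-2 were plated overnight at 37 °C, then dosed over a 10-point curve (final 0.3% DMSO; DMSO alone as high control). Lysates assayed for phospho- and total BAD by Meso Scale immunoassay; % phosphoprotein = (2×phospho)/(phospho+total)×100.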

[4] = molecular target: T4, Pim-1 stably transfected into the U2OS human osteogenic sarcoma line (Homo sapiens, UniProt P11309); assay: Pim cell assay, phospho-BAD normalized against total BAD, U2OS stably transfected with Pim-1; format: cell-based; settings: read-out: Pim1_Cell_IC50
T4 construct: expressed in transfected cells; host or cells: U2OS human osteogenic sarcoma line
T4 sequence (P11309 whole entry): as the sequence (P11309 whole entry) above
Procedure, shortened: as §2

[5] = molecular target: T5, full length recombinant Pim-3 protein (Homo sapiens, UniProt Q86V86); assay: Pim-3 enzyme assay (HTRF, phosphorylation of biotinylated-BAD (S112) peptide); format: biochemical; settings: read-out: Pim3 IC50
T5 construct: by full length recombinant Pim-1, Pim-2, or Pim-3 protein; purchased Millipore (UK)
Procedure, shortened: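 Full-length recombinant Pim-3 phosphorylates biotinylated BAD (S112) peptide in 60 mM Hepes pH 7.0, 0.05% BSA, 2 mM DTT; reaction stopped with 3 mM EDTA. Phospho-BAD detected by HTRF (Eu anti-phospho-BAD S112 antibody, streptavidin-APC). IC50 from percent-of-control values fitted to a 4-parameter logistic model.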

[6] = U2OS cells stably transfected with Pim-2, phospho-BAD, high dose […]
[7] = U2OS cells stably transfected with Pim-1, phospho-BAD, high dose […]

SMILES	IC50 [1] [µM]	IC50 [2] [µM]	IC50 [3] [µM]	IC50 [4] [µM]	IC50 [5] [µM]	IC50 [3, 6] [µM]	IC50 [4, 7] [µM]
CC(C)Oc1cncc(-c2ccc3[nH]cc(-c4csc(-n5ccnc5)n4)c3c2)n1 [Example 228, 3-(2-(1H-imidazol-1-yl)-1,3-thiazol-4-yl)-5-(6-(1-methylethoxy)-2-pyrazinyl)-1H-indole]	0.043	1.41	> 31.6	3.42	0.042		
NC1CCN(c2cncc(-c3c[nH]c4ccc(-c5c(F)cccc5F)cc34)n2)CC1 [Example 22, 1-(6-(5-(2,6-difluorophenyl)-1H-indol-3-yl)pyrazin-2-yl)piperidin-4-amine]	0.002	0.018			0.005	7.11	0.439
COc1cccc(-c2ccc3[nH]nc(-c4cncc(O[C@@H]5CCCNC5)n4)c3c2)c1F [Example 131, 5-(2-fluoro-3-methoxyphenyl)-3-(6-((3R)-3-piperidinyloxy)-2-pyrazinyl)-1H-indazole]	0.002	0.015			0.005	8.91	0.151
NC1CCN(c2cncc(-c3n[nH]c4ccc(-c5cccnc5O)cc34)n2)CC1 [Example 68, 3-(3-(6-(4-amino-1-piperidinyl)-2-pyrazinyl)-1H-indazol-5-yl)-2-pyridinol]	0.02	0.088			0.011	> 31.6	> 31.6
Fc1cccc(F)c1-c1ccc2[nH]nc(-c3cncc(Nc4ccccc4)n3)c2c1 [Example 184, 6-(5-(2,6-difluorophenyl)-1H-indazol-3-yl)-N-phenyl-2-pyrazinamine]	0.139	1.04			0.233	> 31.6	> 31.6
Fc1cccc(F)c1-c1ccc2[nH]cc(-c3cncc(N[C@@H]4CCCNC4)n3)c2c1 [Example 207, 6-(5-(2,6-difluorophenyl)-1H-indol-3-yl)-N-((3R)-3-piperidinyl)-2-pyrazinamine]	0.001	0.011			0.004	3.03	0.102
Fc1ccccc1-c1ccc2[nH]nc(-c3cncc(O[C@@H]4CCCNC4)n3)c2c1 [Example 133, 5-(2-fluorophenyl)-3-(6-((3R)-3-piperidinyloxy)-2-pyrazinyl)-1H-indazole]	0.005	0.017			0.006	7.84	0.435
CCN(CC)C(=O)c1ccc(F)c(-c2ccc3[nH]nc(-c4cncc(N5CCC(N)CC5)n4)c3c2)c1 [Example 46, 3-(3-(6-(4-amino-1-piperidinyl)-2-pyrazinyl)-1H-indazol-5-yl)-N,N-diethyl-4-fluorobenzamide]	0.02	0.049			0.022	7.03	0.959
COc1cc(OC)cc(-c2ccc3[nH]nc(-c4cncc(N5CCC(N)CC5)n4)c3c2)c1 [Example 86, 1-(6-(5-(3,5-dimethoxyphenyl)-1H-indazol-3-yl)-2-pyrazinyl)-4-piperidinamine]	0.006	0.06			0.002	20.3	0.328
NC1CCN(c2cncc(-c3n[nH]c4ccc(-c5ccn[nH]5)cc34)n2)CC1 [Example 80, 1-(6-(5-(1H-pyrazol-5-yl)-1H-indazol-3-yl)-2-pyrazinyl)-4-piperidinamine]	0.003	0.015			0.001	> 31.6	2.38
Fc1cccc(F)c1-c1ccc2[nH]cc(-c3cncc(N[C@@H]4CCNC4)n3)c2c1 [Example 208, 6-(5-(2,6-difluorophenyl)-1H-indol-3-yl)-N-((3R)-3-pyrrolidinyl)-2-pyrazinamine]	0.002	0.015			0.004	4.62	0.381
Nc1cccc(-c2ccc3[nH]nc(-c4cncc(N5CCC(N)CC5)n4)c3c2)c1 [Example 81, 1-(6-(5-(3-aminophenyl)-1H-indazol-3-yl)-2-pyrazinyl)-4-piperidinamine]	0.002	0.029			0.003	7.17	0.395
CC(C)Oc1cncc(-c2ccc3[nH]cc(-c4csc(-n5ccccc5=O)n4)c3c2)n1 [Example 227, 1-(4-(5-(6-(1-methylethoxy)-2-pyrazinyl)-1H-indol-3-yl)-1,3-thiazol-2-yl)-2(1H)-pyridinone]	0.1	> 3	> 15.8	> 15.8	0.206		
NC1CCN(c2cncc(-c3n[nH]c4ccc(-c5cc(C(=O)N6CCCCC6)ccc5F)cc34)n2)CC1 [Example 41, 1-(6-(5-(2-fluoro-5-(1-piperidinylcarbonyl)phenyl)-1H-indazol-3-yl)-2-pyrazinyl)-4-piperidinamine]	0.035	0.029			0.026	8.52	1.4
CS(=O)(=O)c1ccc(-c2ccc3[nH]nc(-c4cncc(N5CCC(N)CC5)n4)c3c2)cc1 [Example 59, 1-(6-(5-(4-(methylsulfonyl)phenyl)-1H-indazol-3-yl)-2-pyrazinyl)-4-piperidinamine]	0.003	0.028			0.011	> 31.6	2.16
Fc1cncc(-c2ccc3[nH]nc(-c4cncc(O[C@@H]5CCCNC5)n4)c3c2)c1 [Example 115, 5-(5-fluoro-3-pyridinyl)-3-(6-((3R)-3-piperidinyloxy)-2-pyrazinyl)-1H-indazole]	0.033	0.155			0.02	> 31.6	0.958
Fc1cccc(Cl)c1-c1ccc2[nH]cc(-c3cncc(O[C@@H]4CCCNC4)n3)c2c1 [Example 26, (R)-5-(2-chloro-6-fluorophenyl)-3-(6-(piperidin-3-yloxy)pyrazin-2-yl)-1H-indole bis(2,2,2-trifluoroacetate)]	0.004	0.023			0.006	3.69	0.514
Fc1cccc(F)c1-c1ccc2[nH]cc(-c3cncc(NC4CCCNC4)c3)c2n1 (stereo not drawn) [Example 33, 5-(5-(2,6-difluorophenyl)-1H-pyrrolo[3,2-b]pyridin-3-yl)-N-(piperidin-3-yl)pyridin-3-amine]	0.026	0.243	> 31.6	1.08	0.069		
CN(c1cncc(-c2n[nH]c3ccc(-c4c(F)cccc4F)cc23)n1)C1CCNCC1 [Example 17, 6-(5-(2,6-Difluorophenyl)-1H-indazol-3-yl)-N-methyl-N-(piperidin-4-yl)pyrazin-2-amine]	0.005	0.043			0.004	11	0.424
CC(C)(C)C(=O)Nc1cccc(-c2ccc3[nH]nc(-c4cncc(N5CCC(N)CC5)n4)c3c2)n1 [Example 93, N-(6-(3-(6-(4-amino-1-piperidinyl)-2-pyrazinyl)-1H-indazol-5-yl)-2-pyridinyl)-2,2-dimethylpropanamide]	0.013	> 1			0.082	> 31.6	0.487
Fc1cccc(F)c1-c1ccc2[nH]cc(-c3nccc(N[C@@H]4CCCNC4)n3)c2c1 [Example 24, (R)-2-(5-(2,6-difluorophenyl)-1H-indol-3-yl)-N-(piperidin-3-yl)pyrimidin-4-amine]	0.018	0.087	> 31.6	0.497	0.023		
N#Cc1ccccc1-c1ccc2[nH]nc(-c3cncc(N4CCC(N)CC4)n3)c2c1 [Example 60, 2-(3-(6-(4-amino-1-piperidinyl)-2-pyrazinyl)-1H-indazol-5-yl)benzonitrile]	0.005	0.036			0.004	12.8	0.419
CN1CCN(c2ccc3[nH]nc(-c4cncc(N5CCC(N)CC5)n4)c3c2)C1=O [Example 92, 1-(3-(6-(4-amino-1-piperidinyl)-2-pyrazinyl)-1H-indazol-5-yl)-3-methyl-2-imidazolidinone]	0.009	0.057	> 31.6	2.23	0.005		
CC(C)Oc1cncc(-c2ccc3[nH]cc(-c4cncc(N5CCOCC5)n4)c3c2)n1 [Example 225, 5-(6-(1-methylethoxy)-2-pyrazinyl)-3-(6-(4-morpholinyl)-2-pyrazinyl)-1H-indole]	0.077	> 3	> 31.6	1.47	0.138		

— US9090593B2, “Bicyclic compounds as Pim inhibitors” (AMGEN INC., priority 2010, dated 2015)
